Key:
Type in all cases: cell-based, human
[1] = tested on: Wnt activity (Sp5-Luc reporter gene, SW480 colon carcinoma cells); assay: Screening assay for Wnt activity: Sp5-Luc reporter gene assay in SW480 cells; conditions: for EC50: overnight incubation; for inhibition at 10 µM: given for EC50 of >10 μM, read-out: percent inhibition at 10 μM
Procedure, shortened: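 SW480 cells stably transduced with a luciferase reporter driven by an Sp5 promoter of eight TCF/LEF sites were plated at 4,000 cells/well in 1% FBS medium. They were exposed overnight at 37° C to a 10-point 1:3 dilution series from 10 μM (0.1% DMSO). Luminescence was normalized to DMSO for four-parameter EC50, or percent inhibition at 10 μM.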

[2] = tested on: SW480 colon cancer cells; assay: Cell viability assay (CellTiter-Blue) in SW480 colon cancer cells; conditions: for EC50: four days, CellTiter-Blue; for inhibition at 10 µM: given for EC50 of >10 μM, read-out: percent inhibition at 10 μM
Procedure, shortened: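 Approximately 2×10^3 SW480 cells per well are seeded with compound (8 points, threefold steps, top 10 μM) and incubated four days at 37 °C. CellTiter-Blue is then added for about 3 h and fluorescence read. Non-linear regression gives EC50; for values beyond 10 μM, percent inhibition at that concentration is listed.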

[3] = tested on: IL-6; assay: IL-6 inhibition in LPS-stimulated THP-1 monocytes (HTRF); conditions: THP-1 cells; for EC50: 500 ng/mL LPS, 22 h, HTRF IL-6 readout, 10-point dose-response from 10 μM; for inhibition at 10 µM: LPS stimulated, given only where EC50 >10 μM, top concentration 10 μM, read-out: percentage in parentheses beside EC50 >10 (IL-6 inhibition)
Procedure, shortened: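 THP-1 cells serum-reduced (1% FBS, 24 h), then 5000 cells/well preincubated 2 h with compound (10-point 1:3 series from 10 μM, 0.1% DMSO) before 500 ng/mL LPS for 22 h at 37 °C. Secreted IL-6 quantified by HTRF 665/620 ratio; DMSO-normalised duplicates fitted to four-parameter EC50; above 10 μM, % inhibition at 10 μM given.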

EC50 ([1]; Homo sapiens) | EC50 ([2]; Homo sapiens, 96 h) | EC50 ([3]; Homo sapiens) | EC50 [1] | EC50 [2] | EC50 [3] | Structure (SMILES) | inhibition at 10 µM ([1]; Homo sapiens) | inhibition at 10 µM ([2]; Homo sapiens) | inhibition at 10 µM ([3]; Homo sapiens)
4750 nM | 3520 nM | 220 nM | – | – | – | CN1CCN(c2cccc3[nH]c(-c4n[nH]c5ncc(-c6cncc(CN7CCCCC7)c6)cc45)cc23)CC1 [Compound 215, 3-(4-(4-Methylpiperazin-1-yl)-1H-indol-2-yl)-5-(5-(piperidin-1-ylmethyl)pyridin-3-yl)-1H-pyrazolo[3,4-b]pyridine] | – | – | –
> 10000 nM | 9070 nM | 106 nM | – | – | – | CN1CCN(c2cccc3[nH]c(-c4n[nH]c5ncc(-c6ccncc6)cc45)cc23)CC1 [Compound 218, 3-(4-(4-Methylpiperazin-1-yl)-1H-indol-2-yl)-5-(pyridin-4-yl)-1H-pyrazolo[3,4-b]pyridine] | 7.7% | – | –
1040 nM | 828 nM | 98 nM | – | – | – | CN1CCN(c2cccc3[nH]c(-c4n[nH]c5ncc(-c6cncc(NC(=O)C7CCCC7)c6)cc45)cc23)CC1 [Compound 222, N-(5-(3-(4-(4-Methylpiperazin-1-yl)-1H-indol-2-yl)-1H-pyrazolo[3,4-b]pyridin-5-yl)pyridin-3-yl)cyclopentanecarboxamide] | – | – | –
4310 nM | 8760 nM | 3900 nM | – | – | – | CN1CCN(c2cccc3[nH]c(-c4n[nH]c5ncc(-c6cncnc6)cc45)cc23)CC1 [Compound 227, 3-(4-(4-Methylpiperazin-1-yl)-1H-indol-2-yl)-5-(pyrimidin-5-yl)-1H-pyrazolo[3,4-b]pyridine] | – | – | –
660 nM | > 10000 nM | 19 nM | – | – | – | c1cncc(-c2cnc3[nH]nc(-c4cc5ccccc5[nH]4)c3c2)c1 [Compound 231, 3-(1H-Indol-2-yl)-5-(pyridin-3-yl)-1H-pyrazolo[3,4-b]pyridine] | – | 9.1% | –
1410 nM | 9320 nM | 821 nM | – | – | – | c1ccc2[nH]c(-c3n[nH]c4ncc(-c5cncc(CN6CCCC6)c5)cc34)cc2c1 [Compound 240, 3-(1H-Indol-2-yl)-5-(5-(pyrrolidin-1-ylmethyl)pyridin-3-yl)-1H-pyrazolo[3,4-b]pyridine] | – | – | –
1640 nM | > 10000 nM | 303 nM | – | – | – | CC(C)(C)CC(=O)Nc1cncc(-c2cnc3[nH]nc(-c4cc5ccccc5[nH]4)c3c2)c1 [Compound 242, N-(5-(3-(1H-Indol-2-yl)-1H-pyrazolo[3,4-b]pyridin-5-yl)pyridin-3-yl)-3,3-dimethylbutanamide] | – | 14.3% | –
521 nM | 632 nM | 2080 nM | – | – | – | CCCC(=O)Nc1cncc(-c2cnc3[nH]nc(-c4cc5ccccc5[nH]4)c3c2)c1 [Compound 243, N-(5-(3-(1H-Indol-2-yl)-1H-pyrazolo[3,4-b]pyridin-5-yl)pyridin-3-yl) butyramide] | – | – | –
2280 nM | > 10000 nM | > 10000 nM | – | – | – | O=C(Nc1cncc(-c2cnc3[nH]nc(-c4cc5ccccc5[nH]4)c3c2)c1)C1CCCCC1 [Compound 249, N-(5-(3-(1H-Indol-2-yl)-1H-pyrazolo[3,4-b]pyridin-5-yl)pyridin-3-yl) cyclohexanecarboxamide] | – | 6.7% | 14.2%
> 10000 nM | > 10000 nM | 4000 nM | – | – | – | c1ccc(CNCc2cncc(-c3cnc4[nH]nc(-c5cc6ccccc6[nH]5)c4c3)c2)cc1 [Compound 250, 1-(5-(3-(1H-Indol-2-yl)-1H-pyrazolo[3,4-b]pyridin-5-yl)pyridin-3-yl)-N-benzylmethanamine] | 50.9% | 12.2% | –
> 10000 nM | > 10000 nM | > 10000 nM | – | – | – | CC(C)(C)C(=O)Nc1cncc(-c2cnc3[nH]nc(-c4cc5c(-c6ccoc6)cccc5[nH]4)c3c2)c1 [Compound 290, N-(5-(3-(4-(Furan-3-yl)-1H-indol-2-yl)-1H-pyrazolo[3,4-b]pyridin-5-yl)pyridin-3-yl)pivalamide] | 53% | 35.1% | 31.2%
1000 nM | 2990 nM | 7150 nM | – | – | – | FC1(F)CCN(Cc2cncc(-c3cnc4[nH]nc(-c5cc6c(-c7ccoc7)cccc6[nH]5)c4c3)c2)C1 [Compound 308, 5-(5-((3,3-Difluoropyrrolidin-1-yl)methyl)pyridin-3-yl)-3-(4-(furan-3-yl)-1H-indol-2-yl)-1H-pyrazolo[3,4-b]pyridine] | – | – | –
304 nM | 376 nM | 660 nM | – | – | – | CC(C)CC(=O)Nc1cncc(-c2cnc3[nH]nc(-c4cc5c(-c6cc(F)cc(NCCN(C)C)c6)cccc5[nH]4)c3c2)c1 [Compound 424, N-(5-(3-(4-(3-((2-(Dimethylamino)ethyl)amino)-5-fluorophenyl)-1H-indol-2-yl)-1H-pyrazolo[3,4-b]pyridin-5-yl)pyridin-3-yl)-3-methylbutanamide] | – | – | –
293 nM | 527 nM | 92 nM | – | – | – | CN(C)CCNc1cc(F)cc(-c2cccc3[nH]c(-c4n[nH]c5ncc(-c6cncc(N)c6)cc45)cc23)c1 [Compound 425, N^1-(3-(2-(5-(5-Aminopyridin-3-yl)-1H-pyrazolo[3,4-b]pyridin-3-yl)-1H-indol-4-yl)-5-fluorophenyl)-N^2,N^2-dimethylethane-1,2-diamine] | – | – | –
947 nM | 757 nM | 257 nM | – | – | – | CCNCc1cncc(-c2cnc3[nH]nc(-c4cc5c(-c6cc(F)cc(NCCN(C)C)c6)cccc5[nH]4)c3c2)c1 [Compound 428, N^1-(3-(2-(5-(5-((Ethylamino)methyl)pyridin-3-yl)-1H-pyrazolo[3,4-b]pyridin-3-yl)-1H-indol-4-yl)-5-fluorophenyl)-N^2,N^2-dimethylethane-1,2-diamine] | – | – | –
312 nM | 394 nM | 692 nM | – | – | – | CC(C)Nc1cncc(-c2cnc3[nH]nc(-c4cc5c(-c6cc(F)cc(NCCN(C)C)c6)cccc5[nH]4)c3c2)c1 [Compound 434, N^1-(3-Fluoro-5-(2-(5-(5-(isopropylamino)pyridin-3-yl)-1H-pyrazolo[3,4-b]pyridin-3-yl)-1H-indol-4-yl)phenyl)-N^2,N^2-dimethylethane-1,2-diamine] | – | – | –
2780 nM | 3860 nM | > 10000 nM | – | – | – | CN(C)CCNc1cc(F)cc(-c2cccc3[nH]c(-c4n[nH]c5ncc(-c6cncc(CN7CCCCC7)c6)cc45)cc23)c1 [Compound 437, N^1-(3-Fluoro-5-(2-(5-(5-(piperidin-1-ylmethyl)pyridin-3-yl)-1H-pyrazolo[3,4-b]pyridin-3-yl)-1H-indol-4-yl)phenyl)-N^2,N^2-dimethylethane-1,2-diamine] | – | – | 43.2%
– | – | – | 6070 nM | 4140 nM | 15 nM | CN(C)CCNc1cc(F)cc(-c2cccc3[nH]c(-c4n[nH]c5ncc(-c6ccncc6)cc45)cc23)c1 [Compound 440] | – | – | –
215 nM | 1220 nM | > 10000 nM | – | – | – | CN(C)CCNc1cc(F)cc(-c2cccc3[nH]c(-c4n[nH]c5ncc(-c6cncc(NC(=O)C7CCC7)c6)cc45)cc23)c1 [Compound 443, N-(5-(3-(4-(3-((2-(Dimethylamino)ethyl)amino)-5-fluorophenyl)-1H-indol-2-yl)-1H-pyrazolo[3,4-b]pyridin-5-yl)pyridin-3-yl)cyclobutanecarboxamide] | – | – | 47.3%
